Columns and labels:
[1] = Ratio of drug level in lymph node popliteal to plasma in Beagle dog at 5 mg/kg, sc after 3 months; type: ADME, organism-based, Canis lupus familiaris; parameters: dose 5 mg/kg, route subcutaneous
[2] = Absolute bioavailability in Beagle dog at 5 mg/kg, sc after 176 days; type: ADME, organism-based, Canis lupus familiaris; details: in vivo
[3] = Ratio of drug level in thymus to plasma in female Beagle dog at 200 mg/kg administered intramuscularly after 3 months; type: ADME, organism-based, Canis lupus familiaris; parameters: dose 200 mg/kg, route intramuscular; details: im
[4] = AUC (0 to last) in female dog at 200 mg, sc after 29 days; details: plasma
Canis familiaris [5] = assay: Toxicity in Beagle dog assessed as white deposits at 20 mg/kg, sc after 3 months; type: organism-based, Canis lupus familiaris; parameters: dose 20 mg/kg, route subcutaneous; details: in vivo, 2191.5 h
[6] = AUC (0 to last) in male dog at 400 mg administered intramuscularly after 85 days; details: plasma, im
[7] = Drug level in male Beagle dog thymus at 400 mg/kg, sc after 1 month; type: ADME, organism-based, Canis lupus familiaris; parameters: dose 400 mg/kg, route subcutaneous; details: read-out: Drug uptake
[8] = Drug level in Beagle dog skin at non-injected site at 5 mg/kg administered intramuscularly after 6 months; type: ADME, organism-based, Canis lupus familiaris, Zone of skin; parameters: dose 5 mg/kg, route intramuscular; details: im, read-out: Drug uptake
[9] = Drug level in Beagle dog lymph node popliteal at 5 mg/kg, sc after 6 months; type: ADME, organism-based, Canis lupus familiaris; parameters: dose 5 mg/kg, route subcutaneous; details: read-out: Drug uptake
[10] = Drug level in Beagle dog skin at injected site at 5 mg/kg administered intramuscularly after 6 months; type: ADME, organism-based, Canis lupus familiaris, Zone of skin; parameters: dose 5 mg/kg, route intramuscular; details: im, read-out: Drug uptake
[11] = Drug level in Beagle dog muscle at non-injected site at 5 mg/kg administered intramuscularly after 6 months; type: ADME, organism-based, Canis lupus familiaris, Muscle tissue; parameters: dose 5 mg/kg, route intramuscular; details: im, read-out: Drug uptake
[12] = Plasma concentration in Beagle dog at 5 mg/kg, sc after 1 month; type: ADME, organism-based, Canis lupus familiaris; parameters: dose 5 mg/kg, route subcutaneous
[13] = Ratio of drug level in thymus to plasma in male Beagle dog at 400 mg/kg, sc after 3 months; type: ADME, organism-based, Canis lupus familiaris; parameters: dose 400 mg/kg, route subcutaneous
[14] = Ratio of drug level in lymph node popliteal to plasma in Beagle dog at 5 mg/kg administered intramuscularly after 1 month; type: ADME, organism-based, Canis lupus familiaris; parameters: dose 5 mg/kg, route intramuscular; details: im
[15] = Drug level in female Beagle dog thymus at 400 mg/kg, sc after 3 months; type: ADME, organism-based, Canis lupus familiaris; parameters: dose 400 mg/kg, route subcutaneous; details: read-out: Drug uptake
[16] = Ratio of drug level in spleen to plasma in female Beagle dog at 200 mg/kg administered intramuscularly after 3 months; type: ADME, organism-based, Canis lupus familiaris; parameters: dose 200 mg/kg, route intramuscular; details: im
[17] = Drug level in male Beagle dog spleen at 200 mg/kg administered intramuscularly after 1 month; type: ADME, organism-based, Canis lupus familiaris; parameters: dose 200 mg/kg, route intramuscular; details: im, read-out: Drug uptake
[18] = Drug level in female Beagle dog spleen at 400 mg/kg administered intramuscularly after 3 months; type: ADME, organism-based, Canis lupus familiaris; parameters: dose 400 mg/kg, route intramuscular; details: im, read-out: Drug uptake
[19] = Drug level in Beagle dog muscle at non-injected site at 5 mg/kg administered intramuscularly after 3 months; type: ADME, organism-based, Canis lupus familiaris, Muscle tissue; parameters: dose 5 mg/kg, route intramuscular; details: im, read-out: Drug uptake
[20] = Tmax in female dog at 400 mg administered intramuscularly after 29 days; details: in vivo, im
[21] = Plasma concentration in male Beagle dog at 200 mg/kg administered intramuscularly after 1 month; type: ADME, organism-based, Canis lupus familiaris; parameters: dose 200 mg/kg, route intramuscular; details: im
[22] = Plasma concentration in male Beagle dog at 200 mg/kg, sc after 3 months; type: ADME, organism-based, Canis lupus familiaris; parameters: dose 200 mg/kg, route subcutaneous
[23] = Ratio of drug level in thymus to plasma in female Beagle dog at 400 mg/kg administered intramuscularly after 3 months; type: ADME, organism-based, Canis lupus familiaris; parameters: dose 400 mg/kg, route intramuscular; details: im
[24] = Ratio of drug level in spleen to plasma in female Beagle dog at 400 mg/kg administered intramuscularly after 1 month; type: ADME, organism-based, Canis lupus familiaris; parameters: dose 400 mg/kg, route intramuscular; details: im
[25] = Drug level in male Beagle dog spleen at 200 mg/kg administered intramuscularly after 3 months; type: ADME, organism-based, Canis lupus familiaris; parameters: dose 200 mg/kg, route intramuscular; details: im, read-out: Drug uptake
[26] = Ratio of drug level in spleen to plasma in female Beagle dog at 200 mg/kg, sc after 3 months; type: ADME, organism-based, Canis lupus familiaris; parameters: dose 200 mg/kg, route subcutaneous
[27] = Drug level in female Beagle dog spleen at 200 mg/kg administered intramuscularly after 3 months; type: ADME, organism-based, Canis lupus familiaris; parameters: dose 200 mg/kg, route intramuscular; details: im, read-out: Drug uptake
[28] = Ratio of drug level in spleen to plasma in male Beagle dog at 400 mg/kg administered intramuscularly after 1 month; type: ADME, organism-based, Canis lupus familiaris; parameters: dose 400 mg/kg, route intramuscular; details: im
Canis familiaris [29] = assay: Toxicity in Beagle dog assessed as untoward effects at 20 mg/kg, sc; type: organism-based, Canis lupus familiaris; parameters: dose 20 mg/kg, route subcutaneous; details: in vivo
Canis familiaris [30] = assay: Toxicity in Beagle dog assessed as abscess formation at 20 mg/kg, sc after 3 months; type: organism-based, Canis lupus familiaris; parameters: dose 20 mg/kg, route subcutaneous; details: in vivo, 2191.5 h
[31] = Drug level in male Beagle dog thymus at 200 mg/kg, sc after 1 month; type: ADME, organism-based, Canis lupus familiaris; parameters: dose 200 mg/kg, route subcutaneous; details: read-out: Drug uptake
[32] = Plasma concentration in male Beagle dog at 400 mg/kg administered intramuscularly after 3 months; type: ADME, organism-based, Canis lupus familiaris; parameters: dose 400 mg/kg, route intramuscular; details: im
[33] = Drug level in female Beagle dog spleen at 200 mg/kg, sc after 1 month; type: ADME, organism-based, Canis lupus familiaris; parameters: dose 200 mg/kg, route subcutaneous; details: read-out: Drug uptake
[34] = Drug level in Beagle dog skin at injected site at 5 mg/kg administered intramuscularly after 3 months; type: ADME, organism-based, Canis lupus familiaris, Zone of skin; parameters: dose 5 mg/kg, route intramuscular; details: im, read-out: Drug uptake
[35] = Drug level in Beagle dog lymph node iliac at 5 mg/kg administered intramuscularly after 6 months; type: ADME, organism-based, Canis lupus familiaris; parameters: dose 5 mg/kg, route intramuscular; details: im, read-out: Drug uptake
[36] = Ratio of drug level in spleen to plasma in male Beagle dog at 400 mg/kg, sc after 3 months; type: ADME, organism-based, Canis lupus familiaris; parameters: dose 400 mg/kg, route subcutaneous
[37] = Drug level in Beagle dog spleen at 5 mg/kg administered intramuscularly after 3 months; type: ADME, organism-based, Canis lupus familiaris; parameters: dose 5 mg/kg, route intramuscular; details: im, read-out: Drug uptake
[38] = Ratio of drug level in spleen to plasma in male Beagle dog at 200 mg/kg, sc after 3 months; type: ADME, organism-based, Canis lupus familiaris; parameters: dose 200 mg/kg, route subcutaneous
[39] = Drug level in Beagle dog thymus at 5 mg/kg administered intramuscularly after 6 months; type: ADME, organism-based, Canis lupus familiaris; parameters: dose 5 mg/kg, route intramuscular; details: im, read-out: Drug uptake
[40] = Plasma concentration in Beagle dog at 5 mg/kg administered intramuscularly after 1 month; type: ADME, organism-based, Canis lupus familiaris; parameters: dose 5 mg/kg, route intramuscular; details: im
[41] = Ratio of drug level in spleen to plasma in Beagle dog at 5 mg/kg, sc after 6 months; type: ADME, organism-based, Canis lupus familiaris; parameters: dose 5 mg/kg, route subcutaneous
[42] = Ratio of drug level in thymus to plasma in female Beagle dog at 400 mg/kg, sc after 1 month; type: ADME, organism-based, Canis lupus familiaris; parameters: dose 400 mg/kg, route subcutaneous
[43] = Ratio of drug level in lymph node iliac to plasma in Beagle dog at 5 mg/kg, sc after 1 month; type: ADME, organism-based, Canis lupus familiaris; parameters: dose 5 mg/kg, route subcutaneous
[44] = Tmax in male dog at 400 mg administered intramuscularly after 29 days; details: in vivo, im
[45] = Ratio of drug level in lymph node axillar to plasma in Beagle dog at 5 mg/kg, sc after 6 months; type: ADME, organism-based, Canis lupus familiaris; parameters: dose 5 mg/kg, route subcutaneous; details: axillary lymph node/plasma
[46] = Drug level in female Beagle dog spleen at 200 mg/kg administered intramuscularly after 1 month; type: ADME, organism-based, Canis lupus familiaris; parameters: dose 200 mg/kg, route intramuscular; details: im, read-out: Drug uptake
[47] = Drug level in Beagle dog lymph node iliac at 5 mg/kg, sc after 3 months; type: ADME, organism-based, Canis lupus familiaris; parameters: dose 5 mg/kg, route subcutaneous; details: read-out: Drug uptake
[48] = Drug level in female Beagle dog thymus at 400 mg/kg, sc after 1 month; type: ADME, organism-based, Canis lupus familiaris; parameters: dose 400 mg/kg, route subcutaneous; details: read-out: Drug uptake
[49] = Ratio of drug level in lymph node iliac to plasma in Beagle dog at 5 mg/kg, sc after 3 months; type: ADME, organism-based, Canis lupus familiaris; parameters: dose 5 mg/kg, route subcutaneous
[50] = Drug level in male Beagle dog thymus at 400 mg/kg administered intramuscularly after 1 month; type: ADME, organism-based, Canis lupus familiaris; parameters: dose 400 mg/kg, route intramuscular; details: im, read-out: Drug uptake
[51] = Drug level in Beagle dog liver at 5 mg/kg administered intramuscularly after 6 months; type: ADME, organism-based, Canis lupus familiaris; parameters: dose 5 mg/kg, route intramuscular; details: im, read-out: Drug uptake
Canis familiaris [52] = assay: Toxicity in Beagle dog assessed as inflammatory signs at 20 mg/kg administered intramuscularly after 3 months; type: organism-based, Canis lupus familiaris; parameters: dose 20 mg/kg, route intramuscular; details: in vivo, im, 2191.5 h
[53] = Drug level in Beagle dog skin at non-injected site at 5 mg/kg, sc after 3 months; type: ADME, organism-based, Canis lupus familiaris, Zone of skin; parameters: dose 5 mg/kg, route subcutaneous; details: read-out: Drug uptake
[54] = Drug level in female Beagle dog spleen at 400 mg/kg, sc after 3 months; type: ADME, organism-based, Canis lupus familiaris; parameters: dose 400 mg/kg, route subcutaneous; details: read-out: Drug uptake
[55] = Plasma concentration in female Beagle dog at 200 mg/kg administered intramuscularly after 1 month; type: ADME, organism-based, Canis lupus familiaris; parameters: dose 200 mg/kg, route intramuscular; details: im, read-out: Drug uptake
[56] = AUC (0 to last) in Beagle dog at 5 mg/kg administered intramuscularly after 184 days; type: ADME, organism-based, Canis lupus familiaris; parameters: dose 5 mg/kg, route intramuscular, time 0 - last; details: plasma, im

Kp at 2191.5 h [1]: 8.2
bioavailability [2]: 80%
Kp at 2191.5 h [3]: 2.8
AUC(0-t) at 696 h [4]: 70600 ng·h/mL
AUC(0-t) at 2040 h [6]: 281000 ng·h/mL
concentration at 730.5 h [7]: 606 ng/g
concentration at 4383 h [8]: 6.7 ng/g
concentration at 4383 h [9]: 5.5 ng/g
concentration at 4383 h [10]: 9.5 ng/g
concentration at 4383 h [11]: < 5 ng/g
concentration at 730.5 h [12]: 16.8 ng/mL
Kp at 2191.5 h [13]: 3.5
Kp at 730.5 h [14]: 574
concentration at 2191.5 h [15]: 101 ng/g
Kp at 2191.5 h [16]: 2.2
concentration at 730.5 h [17]: 133 ng/g
concentration at 2191.5 h [18]: 46.1 ng/g
concentration at 2191.5 h [19]: 84.1 ng/g
Tmax [20]: 8.3 h
concentration at 730.5 h [21]: 74.5 ng/mL
concentration at 2191.5 h [22]: 15.2 ng/mL
Kp at 2191.5 h [23]: 4.9
Kp at 730.5 h [24]: 2.6
concentration at 2191.5 h [25]: 23.8 ng/g
Kp at 2191.5 h [26]: 1.9
concentration at 2191.5 h [27]: 22.1 ng/g
Kp at 730.5 h [28]: 2.2
concentration at 730.5 h [31]: 576 ng/g
concentration at 2191.5 h [32]: 22.1 ng/mL
concentration at 730.5 h [33]: 14.5 ng/g
concentration at 2191.5 h [34]: 16.7 ng/g
concentration at 4383 h [35]: 10.7 ng/g
Kp at 2191.5 h [36]: 2.3
concentration at 2191.5 h [37]: < 5 ng/g
Kp at 2191.5 h [38]: 2.5
concentration at 4383 h [39]: 7.2 ng/g
concentration at 730.5 h [40]: 11.3 ng/mL
Kp at 4383 h [41]: 5.5
Kp at 730.5 h [42]: 5
Kp at 730.5 h [43]: 3.9
Tmax [44]: 17 h
Kp at 4383 h [45]: 6.7
concentration at 730.5 h [46]: 142 ng/g
concentration at 2191.5 h [47]: 16.9 ng/g
concentration at 730.5 h [48]: 1200 ng/g
Kp at 2191.5 h [49]: 5.2
concentration at 730.5 h [50]: 634 ng/g
concentration at 4383 h [51]: 11.6 ng/g
concentration at 2191.5 h [53]: 24.2 ng/g
concentration at 2191.5 h [54]: 67.5 ng/g
concentration at 730.5 h [55]: 61 ng/g
AUC(0-t) at 4416 h [56]: 39400 ng·h/mL
SMILES: Cc1cc(/C=C/C#N)cc(C)c1Nc1ccnc(Nc2ccc(C#N)cc2)n1 [RILPIVIRINE]
Activity (Canis familiaris [5]): Non-toxic
Activity (Canis familiaris [29]): Non-toxic
Activity (Canis familiaris [30]): Non-toxic
Activity (Canis familiaris [52]): Non-toxic

— ChEMBL document CHEMBL1687756 (Antimicrob Agents Chemother, 2010)
